This is an account of results in patent US7812022B2 (GlaxoSmithKline LLC, priority 2004, dated 2010).

Bounds are passed on as bounds.

The target of assay [1] is T1, ErbB2 or EGFR.
T1 construct: enzymes purified from a baculovirus expression system; Reagent production was conducted essentially as described in Brignola, P. S., et al, (2002) J. Biol. Chem. 277(2): 1576-1585
As to the kind of experiment: ErbB family substrate phosphorylation enzyme assay (HTRF), Method A or Method B. Format: biochemical. The essentials:
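Baculovirus-expressed EGFR or ErbB2 (0.8 or 10 nM in enzyme mix) phosphorylates biotinylated Peptide C with 20 µM ATP and 0.8 µM peptide (substrate-mix levels), MnCl2, pH 7.5. Reaction ran 90 min at 20 °C with EDTA stop and HTRF anti-phosphotyrosine read. Method A: enzyme added last; Method B: 1 h enzyme–compound preincubation.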
In general terms: In TR-FRET formats the signal depends on donor and acceptor labels being close together.

Assay [2] relates to BT474 and HN5 tumor cell lines. As to the kind of experiment: Methylene blue growth inhibition assay (cellular Method A). The note with it: Homo sapiens, BT-474, 72 h, 3 days, read-out: Activity (Method): growth inhibition IC50 class. It is filed as cell-based, Human. The essentials:
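Colo205, BT474 and HN5 cells in DMEM/10% FBS (BT474 10,000, HN5 3,000 cells/well) treated next day with compound in DMEM, 0.3% final DMSO, for 3 days at 37° C. Biomass stained with methylene blue, solubilized, read at OD 620; IC50 interpolated by nonlinear regression from % inhibition versus vehicle.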

Assay [3] relates to Colo205 tumor cell lines. As to the kind of experiment: Methylene blue growth inhibition assay (cellular Method A), Colo205. The settings on record: Homo sapiens, COLO 205, 72 h, 3 days, read-out: Activity (Method): growth inhibition IC50 class. Format: cell-based, Human. The protocol: Human breast (BT474) and head and neck (HN5) were cultured in low glucose DMEM (Life Technologies 12320-032) containing 10% fetal bovine serum (FBS). Human colon tumor cells (Colo205) were cultured in DMEM (Invitrogen, 10564) containing 10% FBS. The SV40 transformed human mammary epithelial cell line HB4a was transfected with either human H-ras cDNA (HB4a r4.2) or the human c-ErbB2 cDNA (HB4a c5.2). The HB4a clones were cultured in RPMI containing 10% FBS, insulin (5 g/mL), hydrocortisone (5 g/mL), supplemented with the selection agent hygromycin B (50 g/mL). All lines were grown in a humidified incubator at 37° C. in 95% air, 5% CO2. Cells were harvested using trypsin/EDTA, counted using a haemocytometer, and plated in 100 microliters of the appropriate media, at the following densities, in a 96-well tissue culture plate (Falcon 3075): BT474 10,000 cells/well, HN5 3,000 cells/well. The next day, compounds were diluted in DMEM containing […] gentamicin, at twice the final required concentration, from 10 mM stock solutions in DMSO. 100 microliters/well of these dilutions were added to the 100 microliters of media currently on the cell plates. Medium containing 0.6% DMSO was added to control wells. Compounds diluted in DMEM were added to all cell lines. The final concentration of DMSO in all wells was 0.3%. Cells were returned to the incubator (37° C., 10% CO2) for 3 days. Medium was then removed by aspiration. Cell biomass was estimated by staining cells with 90 microliters per well methylene blue (Sigma M9140, 0.5% in 1:1 ethanol:water), and incubation at rt for at least 30 minutes. Stain was removed, and the plates rinsed by immersion in deionized water and air-dried. To release stain from the cells 100 microliters of solubilization solution was added (1% N-lauroyl sarcosine, Sodium salt, Sigma L5125, in PBS), and plates were shaken gently for about 30 minutes. Optical density at 620 nm was measured on a microplate reader. Percent inhibition of cell growth was calculated relative to vehicle treated control wells. Concentration of compound that inhibits 50% of control cell growth (IC50) was interpolated using nonlinear regression (Levenberg-Marquardt) and the equation, y=Vmax*(1−(x/(K+x)))+Y2, where “K” was equal to the IC50. Method B: Celltiter Glo® Growth Inhibition Assays

The mark [4] stands for this setting: Method B: enzyme mix pre-incubated with compound 1 hour at 20° C., started with substrate mix.
[5] abbreviates: Method A: substrate mix added first, reaction started with enzyme mix.

Regarding `CN(C)CCCNc1ccc(Nc2nccc(-c3c(-c4cccc(NC(=O)c5c(F)cccc5F)c4)nn4ccccc34)n2)cc1F` [Example 41, N-[3-(3-{2-[(4-{[3-(dimethylamino)propyl]amino}-3-fluorophenyl)amino]-4-pyrimidinyl}pyrazolo[1,5-a]pyridin-2-yl)phenyl]-2,6-difluorobenzamide], in assay [1] (setting [4]), the “Activity (Method): pIC50 class against ErbB2 or EGFR” value (“Activity (Method): pIC50 class” for short) is “+++ (B) (at least one pIC50 measurement of greater than 7 against either ErbB2 or EGFR)”. For the same compound, the figures for the IC50 in assay [2] and in assay [3] were < 100 nM and 100 to 1000 nM, respectively.

For `Cc1cccc2c(-c3ccnc(Nc4cccc(F)c4)n3)c(-c3cccc(NC(=O)c4c(F)cccc4F)c3)nn12` [Example 156, 2,6-Difluoro-N-[3-(3-{2-[(3-fluorophenyl)amino]-pyrimidin-4-yl}-7-methylpyrazolo[1,5-a]pyridin-2-yl)phenyl]benzamide], the “Activity (Method): pIC50 class” value in assay [1] (setting [5]) was “++ (A) (at least one pIC50 measurement greater than 6 against either ErbB2 or EGFR but no measurement greater than pIC50 of 7)”. Also, the values for the IC50 in assay [2] and in assay [3] were 100 to 1000 nM and > 1000 nM, respectively.

Take `O=C(Nc1cccc(-c2nn3ccccc3c2-c2ccnc(Nc3ccc4c(c3)CNCC4)n2)c1)c1ccccc1` [Example 62, N-(3-{3-[2-(1,2,3,4-Tetrahydro-7-isoquinolinylamino)-4-pyrimidinyl]pyrazolo[1,5-a]pyridin-2-yl}phenyl)benzamide]: the “Activity (Method): pIC50 class” value in assay [1] (setting [4]) is on record as “+++ (B) (at least one pIC50 measurement of greater than 7 against either ErbB2 or EGFR)”. The IC50 (as a rule, the point on the concentration scale where inhibition reaches its midpoint) in assay [2] is < 100 nM; in assay [3], > 1000 nM.

Regarding `CS(=O)(=O)Cc1ccc(Nc2nccc(-c3c(-c4cccc(NC(=O)c5c(F)cccc5F)c4)nn4ccccc34)n2)cc1` [Example 116, 2,6-Difluoro-N-(3-{3-[2-({4-[(methylsulfonyl)methyl]-phenyl}amino)-4-pyrimidinyl]pyrazolo[1,5-a]pyridin-2-yl}phenyl)benzamide], the “Activity (Method): pIC50 class” value in assay [1] (setting [4]) is reported as “+++ (B) (at least one pIC50 measurement of greater than 7 against either ErbB2 or EGFR)”. In addition, the IC50 in assay [2] is < 100 nM; in assay [3], 100 to 1000 nM.

As to `O=C(Nc1cccc(-c2nn3ccccc3c2-c2ccnc(Nc3cccc(OCCN4CCOCC4)c3)n2)c1)c1c(F)cccc1F` [Example 60, 2,6-Difluoro-N-[3-(3-{2-[(3-{[2-(4-morpholinyl)ethyl]-oxy}phenyl)amino]-4-pyrimidinyl}pyrazolo[1,5-a]pyridin-2-yl)phenyl]benzamide], in assay [1] (setting [4]), the “Activity (Method): pIC50 class” value is “+++ (B) (at least one pIC50 measurement of greater than 7 against either ErbB2 or EGFR)”. The IC50 was < 100 nM in assay [2] and 100 to 1000 nM in assay [3].

In the case of `O=C(Nc1cccc(-c2nn3ccccc3c2-c2ccnc(Nc3cccc(-c4cnco4)c3)n2)c1)c1cc(F)ccc1F` [Example 44, 2,5-Difluoro-N-{3-[3-(2-{[3-(1,3-oxazol-5-yl)phenyl]amino}-4-pyrimidinyl)pyrazolo[1,5-a]pyridin-2-yl]phenyl}benzamide], the “Activity (Method): pIC50 class” value in assay [1] (setting [5]) is listed as “+++ (A) (at least one pIC50 measurement of greater than 7 against either ErbB2 or EGFR)”. Further, the values for the IC50 in assay [2] and in assay [3] were < 100 nM and 100 to 1000 nM, respectively.

Turning to `CCN1CCN(c2ccc(Nc3nccc(-c4c(-c5cccc(NC(=O)c6c(F)cccc6F)c5)nn5ccccc45)n3)cc2)CC1` [Example 107, N-{3-[3-(2-{[4-(4-ethyl-1-piperazinyl)phenyl]amino}-4-pyrimidinyl)pyrazolo[1,5-a]pyridin-2-yl]phenyl}-2,6-difluorobenzamide], the “Activity (Method): pIC50 class” value in assay [1] (setting [4]) is on record as “+++ (B) (at least one pIC50 measurement of greater than 7 against either ErbB2 or EGFR)”. The IC50 in assay [2] and in assay [3] was < 100 nM throughout.

On to `O=C(Nc1cccc(-c2nn3ccccc3c2-c2ccnc(Nc3ccc4c(c3)OCCO4)n2)c1)Nc1ccccc1Cl` [Example 2, N-(2-Chlorophenyl)-N-(3-{3-[2-(2,3-dihydro-1,4-benzodioxin-6-ylamino)-4-pyrimidinyl]pyrazolo[1,5-a]pyridin-2-yl}phenyl)urea], for which the “Activity (Method): pIC50 class” value in assay [1] (setting [5]) is reported as “++ (A) (at least one pIC50 measurement greater than 6 against either ErbB2 or EGFR but no measurement greater than pIC50 of 7)”. Moreover, the IC50 in assay [2] and in assay [3] was > 1000 nM each time.

Turning to `O=C(Nc1cccc(-c2nn3ccccc3c2-c2ccnc(Nc3ccc(OCCN4CCCC4=O)c(F)c3)n2)c1)c1c(F)cccc1F` [Example 133, 2,6-Difluoro-N-[3-(3-{2-[(3-fluoro-4-{[2-(2-oxo-1-pyrrolidinyl)ethyl]oxy}phenyl)amino]-4-pyrimidinyl}pyrazolo[1,5-a]pyridin-2-yl)phenyl]benzamide], the “Activity (Method): pIC50 class” value in assay [1] (setting [4]) is on record as “+++ (B) (at least one pIC50 measurement of greater than 7 against either ErbB2 or EGFR)”. Further, the half-inhibitory concentration (IC50) in assay [2] is < 100 nM; in assay [3], 100 to 1000 nM.

Consider `CN1CCN(CCCNc2ccc(Nc3nccc(-c4c(-c5cccc(NC(=O)c6c(F)cccc6F)c5)nn5ccccc45)n3)cc2F)CC1` [Example 42, 2,6-Difluoro-N-[3-(3-{2-[(3-fluoro-4-{[3-(4-methyl-1-piperazinyl)propyl]amino}phenyl)amino]-4-pyrimidinyl}pyrazolo[1,5-a]pyridin-2-yl)phenyl]benzamide], for which the “Activity (Method): pIC50 class” value in assay [1] (setting [4]) is “+++ (B) (at least one pIC50 measurement of greater than 7 against either ErbB2 or EGFR)”. Further, the figures for the IC50 in assay [2] and in assay [3] were < 100 nM and > 1000 nM, respectively.

Take `O=C(Nc1cccc(-c2nn3ccccc3c2-c2ccnc(Nc3ccc4nn[nH]c4c3)n2)c1)c1c(F)cccc1F` [Example 31, N-(3-{3-[2-(1H-1,2,3-benzotriazol-5-ylamino)-4-pyrimidinyl]pyrazolo[1,5-a]pyridin-2-yl}phenyl)-2,6-difluorobenzamide]: the “Activity (Method): pIC50 class” value in assay [1] (setting [4]) is recorded as “+++ (B) (at least one pIC50 measurement of greater than 7 against either ErbB2 or EGFR)”. Moreover, the IC50 is < 100 nM in assay [2] and 100 to 1000 nM in assay [3].

`CN(C)CCOc1ccc(Nc2nccc(-c3c(-c4cccc(NC(=O)c5c(F)cccc5F)c4)nn4ccccc34)n2)cc1` [Example 105, N-[3-(3-{2-[(4-{[2-(dimethylamino)ethyl]oxy}phenyl)-amino]-4-pyrimidinyl}pyrazolo[1,5-a]pyridin-2-yl)phenyl]-2,6-difluorobenzamide]: the “Activity (Method): pIC50 class” value in assay [1] (setting [4]) is listed as “+++ (B) (at least one pIC50 measurement of greater than 7 against either ErbB2 or EGFR)”. Further, the IC50 in assay [2] and in assay [3] was < 100 nM throughout.

As to `COc1ccc(Nc2nccc(-c3c(-c4cccc(NC(=O)c5c(F)cccc5F)c4)nn4ccccc34)n2)cc1Cl` [Example 87, N-{3-[3-(2-{[3-Chloro-4-(methyloxy)phenyl]amino}-4-pyrimidinyl)pyrazolo[1,5-a]pyridin-2-yl]phenyl}-2,6-difluorobenzamide], in assay [1] (setting [5]), the “Activity (Method): pIC50 class” value is “+++ (A) (at least one pIC50 measurement of greater than 7 against either ErbB2 or EGFR)”. The IC50 in assay [2] is < 100 nM; in assay [3] it was 100 to 1000 nM.

Take `O=C(Nc1cccc(-c2nn3ccccc3c2-c2ccnc(Nc3ccc(CCN4CCOCC4)cc3)n2)c1)c1c(F)cccc1F` [Example 56, 2,6-Difluoro-N-(3-{3-[2-({4-[2-(4-morpholinyl)ethyl]-phenyl}amino)-4-pyrimidinyl]pyrazolo[1,5-a]pyridin-2-yl}phenyl)benzamide]: in assay [1] (setting [4]), the “Activity (Method): pIC50 class” value was “+++ (B) (at least one pIC50 measurement of greater than 7 against either ErbB2 or EGFR)”. The half-inhibitory concentration (IC50) is < 100 nM in assay [2] and 100 to 1000 nM in assay [3].
